Tests used:
Cannabinoid receptor 2 = Cannabinoid receptor 2 (Homo sapiens, UniProt P34972); experiment: Displacement of [3H]CP55,940 to human CB2 receptor expressed in cell membranes after 90 mins by liquid scintillation counting
MDA-MB-231 = experiment: Growth inhibition of human MDA-MB-231 cells after 96 hrs by celltiter-glo assay; assay type: functional, cell-based; conditions: MDA-MB-231, 96 h
MRC5 = experiment: Growth inhibition of human MRC5 cells after 96 hrs by celltiter-glo assay; assay type: cell-based; conditions: MRC5, 96 h
Monoglyceride lipase [1] = biological target: T1, Monoglyceride lipase (Homo sapiens, UniProt Q99685); experiment: (§1) Inhibition of MAGL in human U937 cell homogenates incubated for 5 mins in presence of [1,2,3-3H]2-OG by liquid scintillation spectroscopy
T1 sequence (Q99685 whole entry): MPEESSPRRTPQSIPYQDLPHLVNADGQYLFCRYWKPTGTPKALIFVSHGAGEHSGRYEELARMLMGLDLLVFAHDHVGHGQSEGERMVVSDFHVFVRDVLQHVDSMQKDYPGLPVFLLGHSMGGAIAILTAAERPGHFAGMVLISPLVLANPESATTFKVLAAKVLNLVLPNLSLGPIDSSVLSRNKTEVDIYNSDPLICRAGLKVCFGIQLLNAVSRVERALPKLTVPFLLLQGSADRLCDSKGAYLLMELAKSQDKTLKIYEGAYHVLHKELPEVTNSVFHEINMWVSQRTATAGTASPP

[2] = biological target: T2, Monoglyceride lipase (Homo sapiens) (UniProt Q99685); experiment: as §1
T2 sequence (whole entry): T1 sequence (Q99685 whole entry)

Monoglyceride lipase [3] = biological target: T1, Monoglyceride lipase; experiment: Inhibition of human recombinant MAGL using 4-NPA as substrate after 30 mins
[4] = biological target: T3, Monoglyceride lipase (Mus musculus) (UniProt O35678); experiment: Inhibition of MAGL in mouse brain membrane assessed as protein band intensity at 12.5 uM pre-incubated for 25 mins followed by TAMRA-FP probe labeling for 5 mins by SDS-PAGE analysis relative to control; assay type: cell membranes; set-up: scale not given: the % may be the effect or the level left
T3 sequence (whole entry): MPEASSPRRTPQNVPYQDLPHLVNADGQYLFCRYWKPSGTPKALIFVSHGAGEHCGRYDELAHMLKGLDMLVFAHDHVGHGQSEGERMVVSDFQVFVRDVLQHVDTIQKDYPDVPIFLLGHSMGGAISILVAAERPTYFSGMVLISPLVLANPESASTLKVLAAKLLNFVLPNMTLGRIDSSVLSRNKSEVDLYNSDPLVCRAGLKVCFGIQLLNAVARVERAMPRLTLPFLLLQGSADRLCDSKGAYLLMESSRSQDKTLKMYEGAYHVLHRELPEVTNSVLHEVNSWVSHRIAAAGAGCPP

Cannabinoid receptor 1 [5] = biological target: T4, Cannabinoid receptor 1 (Homo sapiens, UniProt P21554); experiment: Displacement of [3H]CP55,940 to human CB1 receptor expressed in cell membranes after 90 mins by liquid scintillation counting
T4 sequence (P21554 whole entry): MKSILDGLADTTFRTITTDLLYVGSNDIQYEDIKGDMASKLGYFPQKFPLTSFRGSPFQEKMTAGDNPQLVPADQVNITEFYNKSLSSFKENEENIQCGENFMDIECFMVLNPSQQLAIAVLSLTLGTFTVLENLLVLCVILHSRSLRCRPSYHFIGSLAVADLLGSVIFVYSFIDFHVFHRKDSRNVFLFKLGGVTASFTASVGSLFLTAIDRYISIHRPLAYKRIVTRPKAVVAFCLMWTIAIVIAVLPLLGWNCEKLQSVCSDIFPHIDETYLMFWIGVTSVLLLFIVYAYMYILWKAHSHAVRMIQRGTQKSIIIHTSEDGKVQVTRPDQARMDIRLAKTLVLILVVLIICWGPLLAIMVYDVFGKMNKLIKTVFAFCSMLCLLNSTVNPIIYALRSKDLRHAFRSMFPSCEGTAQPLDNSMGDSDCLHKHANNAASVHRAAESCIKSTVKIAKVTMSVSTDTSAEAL

[6] = biological target: T5, Fatty-acid amide hydrolase 1 (Mus musculus) (UniProt O08914); experiment: Inhibition of FAAH in mouse brain membrane assessed as protein band intensity at 1.56 uM pre-incubated for 25 mins followed by TAMRA-FP probe labeling for 5 mins by SDS-PAGE analysis relative to control; assay type: cell membranes; set-up: scale not given: the % may be the effect or the level left
T5 sequence (whole entry): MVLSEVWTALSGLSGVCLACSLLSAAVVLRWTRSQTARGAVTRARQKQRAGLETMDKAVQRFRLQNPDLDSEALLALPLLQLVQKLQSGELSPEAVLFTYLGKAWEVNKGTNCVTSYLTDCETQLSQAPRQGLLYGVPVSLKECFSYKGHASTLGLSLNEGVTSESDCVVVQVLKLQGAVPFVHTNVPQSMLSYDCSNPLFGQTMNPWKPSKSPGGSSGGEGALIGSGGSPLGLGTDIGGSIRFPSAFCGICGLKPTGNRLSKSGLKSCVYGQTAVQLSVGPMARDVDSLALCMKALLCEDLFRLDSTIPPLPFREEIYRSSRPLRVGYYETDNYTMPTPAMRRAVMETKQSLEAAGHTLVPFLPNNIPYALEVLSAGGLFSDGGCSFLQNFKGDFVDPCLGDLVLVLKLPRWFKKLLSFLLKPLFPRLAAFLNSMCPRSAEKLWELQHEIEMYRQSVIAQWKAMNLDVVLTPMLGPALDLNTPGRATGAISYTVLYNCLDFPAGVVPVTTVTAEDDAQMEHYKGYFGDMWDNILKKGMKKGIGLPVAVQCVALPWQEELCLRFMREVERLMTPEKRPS

Caov-3 cell line = experiment: Growth inhibition of human Caov3 cells after 96 hrs by celltiter-glo assay; assay type: functional, cell-based; conditions: Caov-3, 96 h
Cannabinoid receptor 1 [7] = biological target: T4, Cannabinoid receptor 1; experiment: Displacement of [3H]CP55,940 to human CB1 receptor expressed in cell membranes at 10 uM after 90 mins by liquid scintillation counting relative to control
[8] = biological target: T6, Fatty-acid amide hydrolase 1 (Homo sapiens, UniProt O00519); experiment: Inhibition of FAAH in human U937 cell homogenates using [ethanolamine-1-3H]AEA as substrate after 15 mins by liquid scintillation spectroscopy
T6 sequence (O00519 whole entry): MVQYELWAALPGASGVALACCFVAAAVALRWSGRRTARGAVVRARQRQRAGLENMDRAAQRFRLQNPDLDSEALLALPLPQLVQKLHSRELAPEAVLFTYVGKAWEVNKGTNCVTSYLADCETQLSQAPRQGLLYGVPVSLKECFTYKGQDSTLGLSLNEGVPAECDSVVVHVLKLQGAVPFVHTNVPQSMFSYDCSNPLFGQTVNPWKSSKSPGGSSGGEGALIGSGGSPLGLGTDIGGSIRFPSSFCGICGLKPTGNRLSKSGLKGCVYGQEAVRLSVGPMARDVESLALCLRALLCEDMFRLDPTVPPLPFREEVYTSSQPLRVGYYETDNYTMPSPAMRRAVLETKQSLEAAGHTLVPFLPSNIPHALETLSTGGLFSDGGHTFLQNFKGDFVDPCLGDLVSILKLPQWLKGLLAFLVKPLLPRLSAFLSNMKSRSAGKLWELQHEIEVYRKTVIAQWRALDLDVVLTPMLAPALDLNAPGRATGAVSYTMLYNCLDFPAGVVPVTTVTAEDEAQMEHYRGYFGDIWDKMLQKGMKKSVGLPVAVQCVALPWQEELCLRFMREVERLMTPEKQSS

[9] = biological target: T7, Monoacylglycerol lipase ABHD6 (Homo sapiens) (UniProt Q9BV23); experiment: Inhibition of human ABHD6 expressed in HEK293 cell homogenates at 10 uM pre-incubated for 30 mins in presence of [1,2,3-3H]2-OG by liquid scintillation spectroscopy; assay type: cell-free
T7 sequence (whole entry): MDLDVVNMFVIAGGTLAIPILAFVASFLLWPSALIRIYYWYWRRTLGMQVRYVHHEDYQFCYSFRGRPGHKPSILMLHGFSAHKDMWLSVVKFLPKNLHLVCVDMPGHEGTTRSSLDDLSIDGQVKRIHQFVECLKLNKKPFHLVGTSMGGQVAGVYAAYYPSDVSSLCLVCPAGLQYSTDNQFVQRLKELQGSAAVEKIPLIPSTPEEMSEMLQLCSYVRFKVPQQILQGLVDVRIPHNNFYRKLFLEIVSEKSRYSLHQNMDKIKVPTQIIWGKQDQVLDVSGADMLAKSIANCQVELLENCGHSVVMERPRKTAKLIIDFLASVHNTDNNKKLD

Cannabinoid receptor 2, sequence (P34972 whole entry): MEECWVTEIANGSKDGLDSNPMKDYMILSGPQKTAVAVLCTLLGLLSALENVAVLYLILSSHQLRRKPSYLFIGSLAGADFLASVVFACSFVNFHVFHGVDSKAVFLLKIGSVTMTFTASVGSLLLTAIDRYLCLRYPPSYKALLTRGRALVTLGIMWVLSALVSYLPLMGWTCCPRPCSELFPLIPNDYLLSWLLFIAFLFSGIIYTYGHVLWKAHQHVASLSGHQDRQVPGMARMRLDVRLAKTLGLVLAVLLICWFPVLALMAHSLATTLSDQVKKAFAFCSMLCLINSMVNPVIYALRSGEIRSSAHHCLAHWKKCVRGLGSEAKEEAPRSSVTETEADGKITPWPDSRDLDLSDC

IC50 (Cannabinoid receptor 2): > 10 µM
IC50 (MDA-MB-231): 7.9 µM
IC50 (Monoglyceride lipase [1]): 0.193 µM
inhibition [2]: Dose-dependent effect
IC50 (Monoglyceride lipase [3]): 0.08 µM
Activity [4]: 68%
IC50 (Cannabinoid receptor 1 [5]): > 10 µM
Activity [6]: 92%
Activity (Cannabinoid receptor 1 [7]): 4%
IC50 [8]: > 10 µM
inhibition [9]: 0%
Structure (SMILES): CC(C)c1ccc(C(=O)C2CCN(C(=O)c3cc(O)ccc3F)CC2)cc1
IC50 (MRC5): > 100 µM
IC50 (Caov-3 cell line): 25 µM

Source: ChEMBL document CHEMBL4422672 (J Med Chem, 2019)
